# Measurements reported in patent US20260297070A1, “CYCLIC [COMPOUND LEFT OUT] WRN INHIBITORS” (Nimbus Wadjet, Inc., priority 2023, published 2026).
# Target: T1, human Werner helicase (WRN-BV08, Uniprot Q14191, amino acids 517-1235 with L1074F point mutation) (Homo sapiens, UniProt Q14191, L1074F)
# T1 construct: Uniprot Q14191, amino acids 517-1235 with L1074F point mutation; TEV-cleavable 8×His (C, cleaved yes); made in house; host or cells: Sf9 insect cells (baculovirus)
# Test: WRN (BV08) ADP-Glo Assay
# Assay type: biochemical
# Details: 0.15 nM WRN, 5 μM ATP, 0.1 nM DNA duplex, 15 min preincubation, 60 min at 25° C., pH 7.5, 1% DMSO; read-out: ADP-Glo_hWRN_IC50
# Text: Example 2: WRN (BV08) ADP-Glo Assay Protocol
# Bovine skin gelatin (BSG), dimethyl sulfoxide (DMSO), Pluronic F-127 and Tris(2-carboxyethyl)phosphine hydrochloride solution (TCEP) were purchased from Sigma-Aldrich at the highest level of purity possible. Bicine buffer solution was purchased from Alfa Aesar and compound NSC-617145 was purchased from Tocris. DNA duplex was synthesized at BGI (Shenzhen, China) and was composed of strand 1 with the sequence 5′-[…]-3′ (SEQ ID NO.: 1) and strand 2 with the sequence 5′-[…]-3′ (SEQ ID NO.: 2). DNA strands were annealed by heating to 95° C. for 5 minutes followed by slow cooling to room temperature. Compounds in 100% DMSO (0.1 μl) were spotted into a 384-well white polystyrene Optiplate-384 (Perkin Elmer) assay plate using a LabCyte Echo 550 (Agilent). DMSO (0.1 μl) was added to columns 12, rows A-H and column 24, rows I-P for the maximum signal control. Compound NSC-617145 (0.1 μl) was added to columns 12, rows I-P and 24, rows A-H for the minimum signal control (100% inhibition). Compounds/DMSO were preincubated for 15 minutes at 25° C. with 5 uL 2×WRN (BV08), prepared as described below, in assay buffer containing 20 mM Bicine (pH=7.5), 1 mM MgCl2, 10 mM KCl, 0.1% Pluronic F-127, 0.005% BSG, 1 mM TCEP. The reaction was initiated by the addition of 5 μl 2× substrate mixture in assay buffer and incubated for 60 minutes at 25° C. The final concentrations of the assay components were 0.15 nM WRN, 5 μM ATP, and 0.1 nM DNA duplex. The final DMSO concentration was 1% and the reference compound concentration (NSC-617145) used for the minimal signal control was 20 μM. The reaction was stopped by the addition of the ADP-Glo Kit components (Promega) as directed and the relative luminescence units (RLU) were read on an Envision 2104 (Perkin Elmer).
# % Inhibition Calculation:
# Where RLU=relative luminescence units, sample=signal in sample well, and MIN and MAX are the respective minimum and maximum signal controls.
# Four-Parameter IC50 Fit Equation:
# Where top and bottom are normally allowed to float but may be fixed at 100 or 0 respectively in a 3-parameter fit. Y is the % inhibition and X is the compound concentration.
# Molecular Biology and virus production. The DNA encoding human Werner helicase (Uniprot Q14191, amino acids 517-1235 with L1074F point mutation) was generated with codon-optimization for E. coli expression and subcloned into the pFastBac vector with a TEV cleavable 8×His tag (WRN-BV08). The baculovirus from the expression plasmid WRN-BV08 was generated from transfection and amplification following the manufacturer's instructions.
# Sf9 cells grown in SF900II media were infected with 1:200 WRN-BV08 P2 virus and incubated for protein expression for 72 h at 27° C. The WRN protein was purified using the following protocol. The cell pellets were thawed and resuspended in buffer A (50 mM Tris, pH 7.5, 500 mM NaCl, 1 mM TCEP, 10% Glycerol) supplemented with 0.5% CHAPS, 1 mM [COMPOUND LEFT OUT], 1 μg/mL Leupeptin, 1 μg/mL Pepstatin, and the Pierce Universal Nuclease and cocktail tablet. Cleared lysates were loaded onto a Ni Sepharose™ excel column and washed with buffer A and bound protein was eluted with buffer A supplemented with 300 mM imidazole. The eluted protein was dialyzed against buffer A and digested by His-tagged TEV (1:5 ratio) overnight at 4° C. ZnCl2 was added into the sample at final 15 μM before loading onto a second Ni Sepharose™ excel column. Untagged WRN protein was eluted from the column with buffer A supplemented with 20 mM imidazole, dialyzed overnight into buffer B (50 mM Tris, pH 7.5, 1 mM TCEP, 10% Glycerol) supplemented with 150 mM NaCl and loaded onto a Heparin column. Proteins were eluted with a step gradient of buffer B supplemented with 150 mM, 200 mM, 300 mM and 500 mM NaCl. […]
# T1 sequence (Q14191 with tags, fused parts or gaps L1074F limits assumed): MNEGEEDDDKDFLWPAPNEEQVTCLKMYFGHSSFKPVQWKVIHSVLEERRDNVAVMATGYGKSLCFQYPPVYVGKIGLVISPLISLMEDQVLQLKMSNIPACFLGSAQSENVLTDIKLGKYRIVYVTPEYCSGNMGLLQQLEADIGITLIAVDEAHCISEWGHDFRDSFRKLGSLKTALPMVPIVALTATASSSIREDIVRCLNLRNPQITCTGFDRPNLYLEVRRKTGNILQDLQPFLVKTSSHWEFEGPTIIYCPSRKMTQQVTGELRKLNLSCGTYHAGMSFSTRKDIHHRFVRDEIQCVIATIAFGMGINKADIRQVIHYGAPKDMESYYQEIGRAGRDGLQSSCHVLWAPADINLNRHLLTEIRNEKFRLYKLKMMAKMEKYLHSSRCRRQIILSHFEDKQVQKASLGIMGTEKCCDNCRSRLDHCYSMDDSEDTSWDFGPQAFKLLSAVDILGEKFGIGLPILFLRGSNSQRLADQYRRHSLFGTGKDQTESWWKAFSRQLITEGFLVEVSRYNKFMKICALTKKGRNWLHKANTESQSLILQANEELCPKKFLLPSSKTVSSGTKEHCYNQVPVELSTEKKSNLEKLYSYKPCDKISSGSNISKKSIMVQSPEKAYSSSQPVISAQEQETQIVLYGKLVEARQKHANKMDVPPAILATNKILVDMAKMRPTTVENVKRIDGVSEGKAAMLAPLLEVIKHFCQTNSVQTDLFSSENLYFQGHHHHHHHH
row,SMILES,IC50
1,"O=C(Cc1ccc(Oc2ccccc2)cc1)N(Cc1ccncc1)C1C=CS(=O)(=O)C1 (stereo not drawn) [I-503, N-(1,1-dioxo-2,3-dihydro-1lambda6-thiophen-3-yl)-2-(4-phenoxyphenyl)-N-[(pyridin-4-yl)methyl]acetamide]",> 50 µM
2,"O=C(Cc1ccc(-n2cccc2)cc1)N(Cc1ccccc1Br)C1C=CS(=O)(=O)C1 (stereo not drawn) [I-534, N-[(2-bromophenyl)methyl]-N-(1,1-dioxo-2,3-dihydro-1lambda6-thiophen-3-yl)-2-[4-(1H-pyrrol-1-yl)phenyl]acetamide]",> 50 µM
3,"O=C(Cc1ccc(-n2cccc2)cc1)N(Cc1nccs1)C1C=CS(=O)(=O)C1 (stereo not drawn) [I-276, N-(1,1-dioxo-2,3-dihydro-1lambda6-thiophen-3-yl)-2-[4-(1H-pyrrol-1-yl)phenyl]-N-[(1,3-thiazol-2-yl)methyl]acetamide]",5 to 10 µM
4,"O=C(Cc1ccc(-n2cccc2)cc1)N(Cc1ccncc1)C1C=CS(=O)(=O)C1 (single isomer, unassigned) [I-490]",> 50 µM
5,"O=C(Cc1ccc(-n2cccc2)cc1)N(Cc1ccc2ccccc2n1)C1C=CS(=O)(=O)C1 (stereo not drawn) [I-210, N-(1,1-dioxo-2,3-dihydro-1lambda6-thiophen-3-yl)-2-[4-(1H-pyrrol-1-yl)phenyl]-N-[(quinolin-2-yl)methyl]acetamide]",0.5 to 5 µM
6,"O=C(Cc1csc(C2CC2)n1)N(Cc1ccncc1)C1C=CS(=O)(=O)C1 (stereo not drawn) [I-438, 2-(2-cyclopropyl-1,3-thiazol-4-yl)-N-(1,1-dioxo-2,3-dihydro-1lambda6-thiophen-3-yl)-N-[(pyridin-4-yl)methyl]acetamide]",> 50 µM
7,"O=C(Cc1ccc(C2CCCC2)cc1)N(Cc1ccncc1)C1C=CS(=O)(=O)C1 (stereo not drawn) [I-217, 2-(4-cyclopentylphenyl)-N-(1,1-dioxo-2,3-dihydro-1lambda6-thiophen-3-yl)-N-[(pyridin-4-yl)methyl]acetamide]",0.5 to 5 µM
8,"O=C(Cn1nnc2ccccc21)N(Cc1ccncc1)C1C=CS(=O)(=O)C1 (stereo not drawn) [I-492, 2-(1H-1,2,3-benzotriazol-1-yl)-N-(1,1-dioxo-2,3-dihydro-1lambda6-thiophen-3-yl)-N-[(pyridin-4-yl)methyl]acetamide]",> 50 µM
9,"O=C(Cc1ccc(N2CCCC2)cc1)N(Cc1ccncc1)C1C=CS(=O)(=O)C1 (stereo not drawn) [I-464, N-(1,1-dioxo-2,3-dihydro-1lambda6-thiophen-3-yl)-N-[(pyridin-4-yl)methyl]-2-[4-(pyrrolidin-1-yl)phenyl]acetamide]",> 50 µM
10,"O=C(Cn1cc(-c2ccc(F)cc2)cn1)N(Cc1nc(C2CC2)cs1)C1C=CS(=O)(=O)C1 (stereo not drawn) [I-49, N-[(4-cyclopropyl-1,3-thiazol-2-yl)methyl]-N-(1,1-dioxo-2,3-dihydro-1lambda6-thiophen-3-yl)-2-[4-(4-fluorophenyl)-1H-pyrazol-1-yl]acetamide]",< 0.5 µM

# The remaining lines, values ahead:
row,IC50,SMILES
1,< 0.5 µM,"Cc1cccn1-c1ccc(CC(=O)N(Cc2ccnc(C(C)(C)O)c2)C2C=CS(=O)(=O)C2)c(F)c1 (stereo not drawn) [I-66, N-(1,1-dioxo-2,3-dihydro-1lambda6-thiophen-3-yl)-2-[2-fluoro-4-(2-methyl-1H-pyrrol-1-yl)phenyl]-N-{[2-(2-hydroxypropan-2-yl)pyridin-4-yl]methyl}acetamide]"
2,< 0.5 µM,"CC(C)(O)c1csc(CN(C(=O)Cc2ccc(S(F)(F)(F)(F)F)cc2)C2C=CS(=O)(=O)C2)n1 (single isomer, unassigned) [I-709]"
3,0.5 to 5 µM,"CC(C)OC(C(=O)N(Cc1ccnc(C(C)(C)O)c1)C1C=CS(=O)(=O)C1)c1ccc(-c2ccc(F)c(F)c2)cc1F (stereo not drawn) [I-167, N-(1,1-dioxo-2,3-dihydro-1lambda6-thiophen-3-yl)-N-{[2-(2-hydroxypropan-2-yl)pyridin-4-yl]methyl}-2-(propan-2-yloxy)-2-{3,3′,4′-trifluoro-[1,1′-biphenyl]-4-yl}acetamide]"
4,0.5 to 5 µM,"Cc1sc(CN(C(=O)Cc2ccc(-c3ccc(F)c(F)c3)cc2F)C2C=CS(=O)(=O)C2)nc1C1CC1 (stereo not drawn) [I-754, N-[(4-cyclopropyl-5-methyl-1,3-thiazol-2-yl)methyl]-N-(1,1-dioxo-2,3-dihydro-1lambda6-thiophen-3-yl)-2-{3,3′,4′-trifluoro-[1,1′-biphenyl]-4-yl}acetamide]"
5,0.5 to 5 µM,"COc1cc(CN(C(=O)C(OCC2CN(S(C)(=O)=O)C2)c2ccc(-c3ccc(F)c(F)c3)cc2F)[C@@H]2C=CS(=O)(=O)C2)ccn1 (stereo partly drawn) [I-810, N-[(3R)-1,1-dioxo-2,3-dihydro-1lambda6-thiophen-3-yl]-2-[(1-methanesulfonylazetidin-3-yl)methoxy]-N-[(2-methoxypyridin-4-yl)methyl]-2-{3,3′,4′-trifluoro-[1,1′-biphenyl]-4-yl}acetamide]"
6,0.5 to 5 µM,"O=C(Cc1ccc(-c2ccc(F)cc2)cc1)N(Cc1ccncc1)C1C=CS(=O)(=O)C1 (stereo not drawn) [I-200, N-(1,1-dioxo-2,3-dihydro-1lambda6-thiophen-3-yl)-2-{4′-fluoro-[1,1′-biphenyl]-4-yl}-N-[(pyridin-4-yl)methyl]acetamide]"
7,> 50 µM,"O=C(Cc1cccc(C(F)(F)F)c1)N(Cc1ccncc1)C1C=CS(=O)(=O)C1 (stereo not drawn) [I-536, N-(1,1-dioxo-2,3-dihydro-1lambda6-thiophen-3-yl)-N-[(pyridin-4-yl)methyl]-2-[3-(trifluoromethyl)phenyl]acetamide]"
8,> 50 µM,"O=C(c1ccc(-c2ccccc2)cn1)N(Cc1ccccc1)C1C=CS(=O)(=O)C1 (stereo not drawn) [I-487, N-benzyl-N-(1,1-dioxo-2,3-dihydro-1lambda6-thiophen-3-yl)-5-phenylpyridine-2-carboxamide]"
9,0.5 to 5 µM,"COc1cc(CN(C(=O)C(OC)c2ccc(-c3ccc(F)cc3)cc2)C2C=CS(=O)(=O)C2)ccn1 (stereo not drawn) [I-86, N-(1,1-dioxo-2,3-dihydro-1lambda6-thiophen-3-yl)-2-{4′-fluoro-[1,1′-biphenyl]-4-yl}-2-methoxy-N-[(2-methoxypyridin-4-yl)methyl]acetamide]"
10,< 0.5 µM,"COc1cc(C(C)N(C(=O)Cn2cc(-c3cc(F)c(F)c(F)c3)cn2)C2C=CS(=O)(=O)C2)ccn1 (stereo not drawn) [I-820, N-(1,1-dioxo-2,3-dihydro-1lambda6-thiophen-3-yl)-N-[1-(2-methoxypyridin-4-yl)ethyl]-2-[4-(3,4,5-trifluorophenyl)-1H-pyrazol-1-yl]acetamide]"
11,10 to 50 µM,"O=C(Cc1cc(-c2ccccc2)n[nH]1)N(Cc1ccncc1)C1C=CS(=O)(=O)C1 (stereo not drawn) [I-289, N-(1,1-dioxo-2,3-dihydro-1lambda6-thiophen-3-yl)-2-(3-phenyl-1H-pyrazol-5-yl)-N-[(pyridin-4-yl)methyl]acetamide]"
12,5 to 10 µM,"O=C(Cc1ccc(C2CC2(F)F)cc1)N(Cc1ccncc1)C1C=CS(=O)(=O)C1 (stereo not drawn) [I-273, 2-[4-(2,2-difluorocyclopropyl)phenyl]-N-(1,1-dioxo-2,3-dihydro-1lambda6-thiophen-3-yl)-N-[(pyridin-4-yl)methyl]acetamide]"
13,> 50 µM,"COc1ccc2c(c1)CCCC2C(=O)N(Cc1ccncc1)C1C=CS(=O)(=O)C1 (stereo not drawn) [I-717, N-(1,1-dioxo-2,3-dihydro-1lambda6-thiophen-3-yl)-6-methoxy-N-[(pyridin-4-yl)methyl]-1,2,3,4-tetrahydronaphthalene-1-carboxamide]"
14,< 0.5 µM,"CC(C)(O)c1cc(CN(C(=O)Cn2cc(-c3ccc(C(F)F)cc3)cn2)C2C=CS(=O)(=O)C2)ccn1 (single isomer, unassigned) [I-639]"
